The record followed here is patent US20180007910A1, “FUNGICIDAL COMPOSITION EFFECTIVE AGAINST ALTERNARIA ON CITRUS” (ARYSTA LIFESCIENCE BENELUX SPRL, priority 2015, published 2018).

One data set has as its system mandarins. Put plainly: Phytotoxicity observation in field trial 2014. The data set is classed as in vivo. The settings on record: field trial 2014 on mandarins, Syllit 544 g/l suspension concentrate. On the procedure:
(§1) A field trial was conducted for the control of Alternaria alternata on mandarins in Alzira, Valencia, Spain. The product used was Syllit 544 g/l suspension concentrate. Mandarins were harvested and classified using the OECD criteria (international quality standard for citrus established by the Organisation for Economic Co-operation and Development in 2010).

A further data set deals with Alternaria alternata. The data set can be described thus: Field trial 2014, control of Alternaria alternata on mandarins (Alzira, Valencia, Spain). Particulars: Syllit 544 g/l suspension concentrate; spring, autumn and combined treatments; OECD criteria; FIG. 9. The data set is classed as in vivo. As for the experimental part:
as §1

Regarding `CC(=O)O.CCCCCCCCCCCCNC(=N)N` [Dodine, 1-dodecylguanidiniumethanoate], the symptoms of phytotoxicity result in the data set with mandarins is “No symptoms of phytotoxicity were observed”. For the same compound, in the data set with Alternaria alternata, the “percentage of fruits in the category Extra compared to control group” value was “significantly higher percentage of fruit”.
